This test concerns the target T1, BCL6 (Homo sapiens, UniProt P41182).
T1 construct: endogenous in cells; host or cells: T47D breast cancer epithelial cells
In words: Immunofluorescence protocol for high content imaging of BCL6 (degradation) in T47D cells, 3 days compound treatment. To be noted: for Dmax: T47D, read-out: Mean Dmax (%)** category; for DC50: read-out: Mean DC50 (nM)* category. It counts as cell-based. The gist of the method: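 T47D, RPMI1640/10% FBS; cpd 11-pt 3-fold, top 0.1 or 1 μM final; 3 d, 37° C. Fix 4% PFA, perm 0.1% Triton, block 3% BSA; anti-BCL6 1:300 o/n 4° C; Alexa-488 2°, CellMask-647, Hoechst. Imaged 10×, 4 fields/well.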

This passage reports Dmax and DC50 results from patent US11986532B2 (Arvinas Operations, Inc., priority 2021, dated 2024).

The term Dmax denotes the greatest extent of degradation seen. One may read the DC50 as the midpoint of the concentration-degradation curve.

SMILES strings stand for the structures.

In the case of `CNC(=O)COc1cc2cc(Nc3nc(N4CCC(CN5CC(N6CCC(c7ccc8c(c7)C(=O)N(C7CCC(=O)NC7=O)C8=O)C(F)C6)C5)CC4)ncc3Cl)ccc2n(C(C)C)c1=O` (stereo not drawn) [Compound 213, 2-({6-[(5-chloro-2-{4-[(3-{4-[2-(2,6-dioxopiperidin-3-yl)-1,3-dioxo-2,3-dihydro-1H-isoindol-5-yl]-3-fluoropiperidin-1-yl}azetidin-1-yl)methyl]piperidin-1-yl}pyrimidin-4-yl)amino]-2-oxo-1-(propan-2-yl)-1,2-dihydroquinolin-3-yl}oxy)-N-methylacetamide], the Dmax was in the range of 50 to 70% and the half-maximal degradation concentration (DC50) is 10 to 50 nM.

Regarding `CNC(=O)COc1cc2cc(Nc3nc(N4CCC(O[C@H]5C[C@H](N6CCC(c7ccc8c(n7)CN(C7CCC(=O)NC7=O)C8=O)CC6)C5)CC4)ncc3Cl)ccc2n(C(C)C)c1=O` (stereo partly drawn) [Compound 214, 2-({6-[(5-chloro-2-{4-[(1r,3r)-3-{4-[6-(2,6-dioxopiperidin-3-yl)-5-oxo-5H,6H,7H-pyrrolo[3,4-b]pyridin-2-yl]piperidin-1-yl}cyclobutoxy]piperidin-1-yl}pyrimidin-4-yl)amino]-2-oxo-1-(propan-2-yl)-1,2-dihydroquinolin-3-yl}oxy)-N-methylacetamide], the Dmax is 50 to 70% and the DC50 is less than 10 nM.

Consider `CNC(=O)COc1cc2cc(Nc3cc(N4CCC(CN5CCC6(CC5)CN(c5ccc7c(c5)C(=O)N(C5CCC(=O)NC5=O)C7=O)C6)CC4)ncc3Cl)ccc2n(C(C)C)c1=O` (stereo not drawn) [Compound 215, 2-{[6-({5-chloro-2-[4-({2-[2-(2,6-dioxopiperidin-3-yl)-1,3-dioxoisoindol-5-yl]-2,7-diazaspiro[3.5]nonan-7-yl}methyl)piperidin-1-yl]pyridin-4-yl}amino)-1-isopropyl-2-oxoquinolin-3-yl]oxy}-N-methylacetamide], for which the Dmax is 50 to 70% and the DC50 lay in the range of 10 to 50 nM.

Consider `CNC(=O)COc1cc2cc(Nc3nc(N4CCC(O[C@H]5C[C@H](N6CCC(c7cnc8c(c7)CN(C7CCC(=O)NC7=O)C8=O)CC6)C5)CC4)ncc3Cl)ccc2n(C(C)C)c1=O` (stereo partly drawn) [Compound 216, 2-({6-[(5-chloro-2-{4-[(1r,3r)-3-{4-[6-(2,6-dioxopiperidin-3-yl)-7-oxo-5H,6H,7H-pyrrolo[3,4-b]pyridin-3-yl]piperidin-1-yl}cyclobutoxy]piperidin-1-yl}pyrimidin-4-yl)amino]-2-oxo-1-(propan-2-yl)-1,2-dihydroquinolin-3-yl}oxy)-N-methylacetamide], for which the Dmax was in the range of 50 to 70% and the DC50 was less than 10 nM.

Regarding `CNC(=O)COc1cc2cc(Nc3nc(N4CCC(CN5CC(N6CCC(c7ccc8c(c7)CN(C7CCC(=O)NC7=O)C8=O)C(F)C6)C5)CC4)ncc3Cl)ccc2n(C(C)C)c1=O` (stereo not drawn) [Compound 217, 2-({6-[(5-chloro-2-{4-[(3-{4-[2-(2,6-dioxopiperidin-3-yl)-1-oxo-2,3-dihydro-1H-isoindol-5-yl]-3-fluoropiperidin-1-yl}azetidin-1-yl)methyl]piperidin-1-yl}pyrimidin-4-yl)amino]-2-oxo-1-(propan-2-yl)-1,2-dihydroquinolin-3-yl}oxy)-N-methylacetamide], the Dmax was 50 to 70% and the DC50 was less than 10 nM.

Take `CNC(=O)COc1cc2cc(Nc3nc(N4CCC(O[C@H]5C[C@H](N6CCC(c7ccc8c(c7)CN(C7CCC(=O)NC7=O)C8=O)C(F)(F)C6)C5)CC4)ncc3Cl)ccc2n(C(C)C)c1=O` (stereo partly drawn) [Compound 218, 2-[[6-[[5-chloro-2-[4-[3-[4-[2-(2,6-dioxo-3-piperidyl)-1-oxo-isoindolin-5-yl]-3,3-difluoro-1-piperidyl]cyclobutoxy]-1-piperidyl]pyrimidin-4-yl]amino]-1-isopropyl-2-oxo-3-quinolyl]oxy]-N-methyl-acetamide]: the Dmax was no less than 70% and the DC50 was less than 10 nM.

Regarding `CNC(=O)COc1cc2cc(Nc3nc(N4CCC(O[C@H]5C[C@H](N6CCC(c7cc8c(cn7)C(=O)N(C7CCC(=O)NC7=O)C8)CC6)C5)CC4)ncc3Cl)ccc2n(C(C)C)c1=O` (stereo partly drawn) [Compound 219, 2-({6-[(5-chloro-2-{4-[(1r,3r)-3-{4-[2-(2,6-dioxopiperidin-3-yl)-3-oxo-1H,2H,3H-pyrrolo[3,4-c]pyridin-6-yl]piperidin-1-yl}cyclobutoxy]piperidin-1-yl}pyrimidin-4-yl)amino]-2-oxo-1-(propan-2-yl)-1,2-dihydroquinolin-3-yl}oxy)-N-methylacetamide], the Dmax fell in the range of 50 to 70% and the DC50 is less than 10 nM.

On to `CNC(=O)COc1cc2cc(Nc3nc(N4CCC(N5CCC56CN(C5CCN(c7ccc8c(c7)C(=O)N(C7CCC(=O)NC7=O)C8=O)CC5)C6)CC4)ncc3Cl)ccc2n(C(C)C)c1=O` (stereo not drawn) [Compound 220, 2-{[6-({5-chloro-2-[4-(6-{1-[2-(2,6-dioxopiperidin-3-yl)-1,3-dioxo-2,3-dihydro-1H-isoindol-5-yl]piperidin-4-yl}-1,6-diazaspiro[3.3]heptan-1-yl)piperidin-1-yl]pyrimidin-4-yl}amino)-2-oxo-1-(propan-2-yl)-1,2-dihydroquinolin-3-yl]oxy}-N-methylacetamide], for which the greatest degradation seen (Dmax) lay within 50 to 70% and the DC50 was 10 to 50 nM.

Regarding `CNC(=O)COc1cc2cc(Nc3nc(N4CCC(N5CCC56CN(C5CCN(c7ccc8c(c7)C(=O)N(C7CCC(=O)NC7=O)C8=O)C5)C6)CC4)ncc3Cl)ccc2n(C(C)C)c1=O` (stereo not drawn) [Compound 221, 2-{[6-({5-chloro-2-[4-(6-{1-[2-(2,6-dioxopiperidin-3-yl)-1,3-dioxo-2,3-dihydro-1H-isoindol-5-yl]pyrrolidin-3-yl}-1,6-diazaspiro[3.3]heptan-1-yl)piperidin-1-yl]pyrimidin-4-yl}amino)-2-oxo-1-(propan-2-yl)-1,2-dihydroquinolin-3-yl]oxy}-N-methylacetamide], the Dmax was in the range of 50 to 70% and the 50% degradation concentration (DC50) was less than 10 nM.

`CNC(=O)COc1cc2cc(Nc3nc(N4CCC(N5CCC56CN(C5CCCN(c7ccc8c(c7)CN(C7CCC(=O)NC7=O)C8=O)C5)C6)CC4)ncc3Cl)ccc2n(C(C)C)c1=O` (stereo not drawn) [Compound 222, 2-{[6-({5-chloro-2-[4-(6-{1-[2-(2,6-dioxopiperidin-3-yl)-1-oxo-2,3-dihydro-1H-isoindol-5-yl]piperidin-3-yl}-1,6-diazaspiro[3.3]heptan-1-yl)piperidin-1-yl]pyrimidin-4-yl}amino)-2-oxo-1-(propan-2-yl)-1,2-dihydroquinolin-3-yl]oxy}-N-methylacetamide]: the maximal degradation (Dmax) was 50 to 70% and the DC50 is less than 10 nM.

Regarding `CNC(=O)COc1cc2cc(Nc3nc(N4CCC(N5CCC6(C5)CN(C5CCN(c7ccc8c(c7)C(=O)N(C7CCC(=O)NC7=O)C8=O)CC5)C6)CC4)ncc3Cl)ccc2n(C(C)C)c1=O` (stereo not drawn) [Compound 224, 2-{[6-({5-chloro-2-[4-(2-{1-[2-(2,6-dioxopiperidin-3-yl)-1,3-dioxo-2,3-dihydro-1H-isoindol-5-yl]piperidin-4-yl}-2,6-diazaspiro[3.4]octan-6-yl)piperidin-1-yl]pyrimidin-4-yl}amino)-2-oxo-1-(propan-2-yl)-1,2-dihydroquinolin-3-yl]oxy}-N-methylacetamide], the Dmax is no less than 70% and the DC50 was in the range of 10 to 50 nM.

With `[2H]C([2H])([2H])Oc1c(N2CC3(CCC(OC4CCN(c5ncc(Cl)c(Nc6ccc7c(c6)cc(OCC(=O)NC)c(=O)n7C(C)C)n5)CC4)CC3)C2)ccc2c1CN(C1CCC(=O)NC1=O)C2=O` (stereo not drawn) [Compound 225, 2-((6-((5-chloro-2-(4-((2-(2-(2,6-dioxopiperidin-3-yl)-4-(methoxy-d3)-1-oxoisoindolin-5-yl)-2-azaspiro[3.5]nonan-7-yl)oxy)piperidin-1-yl)pyrimidin-4-yl)amino)-1-isopropyl-2-oxo-1,2-dihydroquinolin-3-yl)oxy)-N-methylacetamide], the Dmax was no less than 70% and the DC50 was less than 10 nM.

For `CNC(=O)COc1cc2cc(Nc3nc(N4CCC(O[C@H]5C[C@H](N6CCC(c7ccc8c(c7C(F)(F)F)CN(C7CCC(=O)NC7=O)C8=O)CC6)C5)CC4)ncc3Cl)ccc2n(C(C)C)c1=O` (stereo partly drawn) [Compound 226, 2-({6-[(5-chloro-2-{4-[(1r,3r)-3-{4-[2-(2,6-dioxopiperidin-3-yl)-1-oxo-4-(trifluoromethyl)-2,3-dihydro-1H-isoindol-5-yl]piperidin-1-yl}cyclobutoxy]piperidin-1-yl}pyrimidin-4-yl)amino]-2-oxo-1-(propan-2-yl)-1,2-dihydroquinolin-3-yl}oxy)-N-methylacetamide], the Dmax was no less than 70% and the DC50 was less than 10 nM.

For the compound `[2H]C([2H])([2H])Oc1c(N2CC3(CCN(CC4CCN(c5ncc(Cl)c(Nc6ccc7c(c6)cc(OCC(=O)NC)c(=O)n7C(C)C)n5)CC4)CC3)C2(C)C)ccc2c1CN(C1CCC(=O)NC1=O)C2=O` (stereo not drawn) [Compound 227, 2-{[6-({5-chloro-2-[4-({2-[2-(2,6-dioxopiperidin-3-yl)-4-(^2H3)methoxy-1-oxo-2,3-dihydro-1H-isoindol-5-yl]-1,1-dimethyl-2,7-diazaspiro[3.5]nonan-7-yl}methyl)piperidin-1-yl]pyrimidin-4-yl}amino)-2-oxo-1-(propan-2-yl)-1,2-dihydroquinolin-3-yl]oxy}-N-methylacetamide], the Dmax is 50 to 70% and the DC50 is less than 10 nM.

Take `CNC(=O)COc1cc2cc(Nc3nc(N4CCC(N5CCC6(CN(CC7CCN(c8ccc9c(c8)C(=O)N(C8CCC(=O)NC8=O)C9=O)CC7)C6)C5)CC4)ncc3Cl)ccc2n(C(C)C)c1=O` (stereo not drawn) [Compound 228, 2-({6-[(5-chloro-2-{4-[2-({1-[2-(2,6-dioxopiperidin-3-yl)-1,3-dioxo-2,3-dihydro-1H-isoindol-5-yl]piperidin-4-yl}methyl)-2,6-diazaspiro[3.4]octan-6-yl]piperidin-1-yl}pyrimidin-4-yl)amino]-2-oxo-1-(propan-2-yl)-1,2-dihydroquinolin-3-yl}oxy)-N-methylacetamide]: the Dmax fell in the range of 50 to 70% and the DC50 was 10 to 50 nM.
